In US8957087B2, “Heterocyclic substituted acardite derivate and application thereof” (Jiangsu Provincial Institute of Materia Medica Co., Ltd., priority 2009, dated 2015):
Where two headings read alike, the source gives them in different places.

What was measured:
Raf-1(truncated) = assay: Raf-1 inhibitor screening by chemoluminescence method; format: biochemical; conditions: Final concentration 1 x 1.0*10^−5 mol/ml
Source text: 1. Inhibitory activity of the compound of the present invention on raf kinase
Raf-1 inhibitor screening by chemoluminescence method
Westernblot electrophoresis apparatus Rotaryshaker
Raf-1(truncated), Magnesium/ATP Cocktail, MEK1 unactive

[1] = tested on: human lung cancer cell strain A549; assay: MTT assay, inhibition of growth of human lung cancer cell strain A549; format: cell-based
Summary of the method: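 A549 cells grown in F12 with 10% FBS; growth read by MTT, inhibition rate from blank-corrected OD of drug wells versus control wells.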

[2] = tested on: human high-metastic lung cancer cell 95D; assay: Inhibition of human high-metastic lung cancer cell 95D migration (Boyden Chamber Transwell); format: cell-based; conditions: Final concentration 1 x 1.0*10^(−5) mol/L
Summary of the method: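 Boyden Transwell migration (8 μm pores) of 95D cells, RPMI-1640 with 10% FBS versus serum-free medium; inhibition rate calculated.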

lung cancer cell A549 = assay: Effects on the adhesive ability of lung cancer cell A549; format: cell-based, human; conditions: Final concentration 1 x 1.0*10^(−5) mol/L
Summary of the method: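 A549 cells in 1640 medium with 10% FBS tested for adhesion to gelatin versus poly-lysine (PLL), with CCK8 used as read-out. Inhibition rate derived from the gelatin/PLL adhesion OD ratio of dosed cells relative to the undosed cell group.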

[3] = tested on: human umbilical vein endothelial cell HUVEC; assay: Growth of human umbilical vein endothelial cell HUVEC by CCK8 method; format: cell-based; conditions: Final concentration 1 x 1.0*10^(−5) mol/L
Summary of the method: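 HUVEC cells were grown in 1640 medium with 10% FBS, and growth was measured by the CCK8 method. OD values of drug and control wells were corrected by subtracting the blank-well OD.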

[4] = tested on: human umbilical vein endothelial cell HUVEC; assay: Lumen formation ability of HUVEC (Matrigel method); format: cell-based; conditions: Final concentration 1 x 1.0*10^(−5) mol/L
Summary of the method: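 HUVEC at passage 3–5, cultured in M199 at 37° C under 5% CO2, were plated on Matrigel with compound. Spontaneous lumen formation was scored as an inhibition rate.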

[5] = tested on: human lung cancer A549 transplantation tumor; format: in vivo; conditions: BALB/cA nude mice; 60 mg/kg, 6 times every week for 3 weeks; Sorafenib oral 60 mg/kg
Summary of the method: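 Female BALB/cA nude mice, 35-40 days old, bearing A549 human lung cancer transplants; 6 per treatment group, 12 saline controls. Compound given at 60 mg/kg, 6 times weekly for 3 weeks, then observed one week.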

[6] = tested on: human liver cancer cell bel-7402 transplantation tumor; format: in vivo; conditions: BALB/cA nude mice; 60 mg/kg, 6 times every week for 3 weeks; Sorafenib oral 60 mg/kg
Summary of the method: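 Female BALB/cA nude mice (35–40 days, 18–22 g) bearing Bel-7402 xenografts; 6 mice per treated group, 12 in saline controls. Compound dosed at 60 mg/kg, 6 times weekly for 3 weeks, followed by one week of observation; tumor inhibition rate scored against controls.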

[7] = tested on: renal carcinoma cell line GCR-1 transplanted tumor; format: in vivo, BALB/cA nude mice; conditions: BALB/cA nude mice; 60 mg/kg, 6 times every week for 3 weeks; Sorafenib oral 60 mg/kg
Summary of the method: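 Female BALB/cA nude mice (18–22 g) bearing GCR-1 renal carcinoma xenografts, 6 per treated group, 12 saline controls. Drug given at 60 mg/kg, 6 times weekly for 3 weeks, then one week of observation; tumor inhibition rate reported.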

mice S180 sarcoma = assay: Experimental therapeutic action on S180 sarcoma mice; conditions: mice S180 sarcoma, 60 mg/kg orally for 9 days
[8] = tested on: Human colon cancer HT-29 transplantable tumor; assay: Human colon cancer HT-29 transplantable tumor in nude mice; conditions: HT-29 in nude mice, 60 mg/kg ig 9 times
[9] = Final concentration 1 x 1.0*10^(−5) mol/L

Compound: CNC(=O)c1ncc(Oc2ccc(NC(=O)Nc3ccc(Cl)c(C(F)(F)F)c3)cc2)c(OC)n1 [Compound 7, N-(4-chloro-3-(trifluoromethyl)phenyl)-N′-(4-(2-(N-methylaminoformoxyl)-5-(4-methoxypyrimidinyl)oxy)phenyl)urea]
- Inhibition rate % on raf kinase (Raf-1(truncated)): 99.1%
- Inhibition rate, growth of human lung cancer cell A549 [1, 9]: 45.30%
- Inhibition rate, 95D cell strain migration [2]: 89.34%
- Inhibition rate, adhesion ability of human lung cancer cell A549 (lung cancer cell A549): 68.34%
- Inhibition rate, growth of HUVEC cell [3]: 8.30%
- Inhibition rate, lumen formation ability of HUVEC [4]: 60.34%
- Relative tumor reproduction rate T/C (%) on human lung cancer A549 transplantation tumor in nude mice [5]: 39.3%
- Relative tumor reproduction rate T/C (%) on human liver cancer cell bel-7402 transplantation tumor model in nude mice [6]: 34.2%
- Relative tumor reproduction rate T/C (%) on human renal carcinoma GCR-1 cell transplanted tumor model in nude mice [7]: 21.2%
- Tumor growth inhibition rate (%) (mice S180 sarcoma): 21.5%
- Relative tumor reproduction rate T/C (%) [8]: 40.1%

Compound: CCc1ccc(NC(=O)Nc2ccc(Oc3ccnc4cc(F)c(OC)cc34)cc2)cc1C(F)(F)F [Compound 32, N-(4-ethyl-3-(trifluoromethyl)phenyl)-N′-(4-(4-(6-methoxyl-7-fluoro-quinolinyl)oxy)phenyl)urea]
- Inhibition rate % on raf kinase (Raf-1(truncated)): 90.5%
- Inhibition rate, growth of human lung cancer cell A549 [1]: 45.76%
- Inhibition rate, 95D cell strain migration [2]: 66.92%
- Inhibition rate, adhesion ability of human lung cancer cell A549 (lung cancer cell A549): 64.73%
- Inhibition rate, growth of HUVEC cell [3]: 24.77%
- Inhibition rate, lumen formation ability of HUVEC [4]: 54.74%
- Relative tumor reproduction rate T/C (%) on human lung cancer A549 transplantation tumor in nude mice [5]: 35.3%
- Relative tumor reproduction rate T/C (%) on human liver cancer cell bel-7402 transplantation tumor model in nude mice [6]: 31.4%
- Relative tumor reproduction rate T/C (%) on human renal carcinoma GCR-1 cell transplanted tumor model in nude mice [7]: 32.5%
- Tumor growth inhibition rate (%) (mice S180 sarcoma): 49.8%
- Relative tumor reproduction rate T/C (%) [8]: 46.2%

Compound: CNC(=O)c1cc(Oc2ccc(NC(=O)Nc3ccc(F)c(C(F)(F)F)c3)cc2)c(C)[nH]1 [Compound 14, N-(4-fluoro-3-(trifluoromethyl)phenyl)-N′-(4-(2-(N-methylaminoformoxyl)-4-(5-methyl-pyrryl)oxy)phenyl)urea]
- Inhibition rate % on raf kinase (Raf-1(truncated)): 41.3%
- Inhibition rate, growth of human lung cancer cell A549 [1, 9]: 67.25%
- Inhibition rate, 95D cell strain migration [2]: 57.57%
- Inhibition rate, adhesion ability of human lung cancer cell A549 (lung cancer cell A549): 67.51%
- Inhibition rate, growth of HUVEC cell [3]: 17.25%
- Inhibition rate, lumen formation ability of HUVEC [4]: 67.53%
- Relative tumor reproduction rate T/C (%) on human lung cancer A549 transplantation tumor in nude mice [5]: 32.2%
- Relative tumor reproduction rate T/C (%) on human liver cancer cell bel-7402 transplantation tumor model in nude mice [6]: 36.1%
- Relative tumor reproduction rate T/C (%) on human renal carcinoma GCR-1 cell transplanted tumor model in nude mice [7]: 31.1%
- Tumor growth inhibition rate (%) (mice S180 sarcoma): 18.2%
- Relative tumor reproduction rate T/C (%) [8]: 40.1%

Compound: Nc1ccc2c(Oc3ccc(NC(=O)Nc4ccc(Br)c(C(F)(F)F)c4)cc3)cncc2c1 [Compound 27, N-(4-bromo-3-(trifluoromethyl)phenyl)-N′-(4-(4-(7-amino-isoquinolyl)oxy)phenyl)urea]
- Inhibition rate % on raf kinase (Raf-1(truncated)): 8.8%
- Inhibition rate, growth of human lung cancer cell A549 [1]: 64.71%
- Inhibition rate, 95D cell strain migration [2]: 59.77%
- Inhibition rate, adhesion ability of human lung cancer cell A549 (lung cancer cell A549): 94.77%
- Inhibition rate, growth of HUVEC cell [3]: 24.73%
- Inhibition rate, lumen formation ability of HUVEC [4]: 89.75%
- Relative tumor reproduction rate T/C (%) on human lung cancer A549 transplantation tumor in nude mice [5]: 36.3%
- Relative tumor reproduction rate T/C (%) on human liver cancer cell bel-7402 transplantation tumor model in nude mice [6]: 29.2%
- Relative tumor reproduction rate T/C (%) on human renal carcinoma GCR-1 cell transplanted tumor model in nude mice [7]: 26.2%
- Tumor growth inhibition rate (%) (mice S180 sarcoma): 55.1%
- Relative tumor reproduction rate T/C (%) [8]: 80.3%

Compound: N-(4-chloro-3-(trifluoromethyl)phenyl)-N′-(4-(2-(N-methylaminoformoxyl)-4-(7-amino-isoquinolyl)oxy)phenyl)urea [Compound 10]
- Inhibition rate % on raf kinase (Raf-1(truncated)): 3.5%
- Inhibition rate, growth of human lung cancer cell A549 [1, 9]: 74.50%
- Inhibition rate, 95D cell strain migration [2]: 61.43%
- Inhibition rate, adhesion ability of human lung cancer cell A549 (lung cancer cell A549): 64.57%
- Inhibition rate, growth of HUVEC cell [3]: 14.50%
- Inhibition rate, lumen formation ability of HUVEC [4]: 50.34%
- Relative tumor reproduction rate T/C (%) on human lung cancer A549 transplantation tumor in nude mice [5]: 30.1%
- Relative tumor reproduction rate T/C (%) on human liver cancer cell bel-7402 transplantation tumor model in nude mice [6]: 28.1%
- Relative tumor reproduction rate T/C (%) on human renal carcinoma GCR-1 cell transplanted tumor model in nude mice [7]: 27.1%
- Tumor growth inhibition rate (%) (mice S180 sarcoma): 55.2%
- Relative tumor reproduction rate T/C (%) [8]: 78.9%

Compound: CCNC(=O)c1cc(Oc2ccc(NC(=O)Nc3ccc(Cl)c(OC)c3)c(OC)c2)c2ccc([N+](=O)[O-])cc2n1 [Compound 36, N-(4-chloro-3-methoxyphenyl)-N′-(2-methoxyl-4-(2-(N-ethylcarbamyl)-4-(7-nitryl-quinolinyl)oxy)phenyl)urea]
- Inhibition rate % on raf kinase (Raf-1(truncated)): 81.2%
- Inhibition rate, growth of human lung cancer cell A549 [1]: 72.45%
- Inhibition rate, 95D cell strain migration [2]: 84.59%
- Inhibition rate, adhesion ability of human lung cancer cell A549 (lung cancer cell A549): 74.50%
- Inhibition rate, growth of HUVEC cell [3]: 12.45%
- Inhibition rate, lumen formation ability of HUVEC [4]: 64.50%
- Relative tumor reproduction rate T/C (%) on human lung cancer A549 transplantation tumor in nude mice [5]: 37.9%
- Relative tumor reproduction rate T/C (%) on human liver cancer cell bel-7402 transplantation tumor model in nude mice [6]: 37.9%
- Relative tumor reproduction rate T/C (%) on human renal carcinoma GCR-1 cell transplanted tumor model in nude mice [7]: 25.9%
- Tumor growth inhibition rate (%) (mice S180 sarcoma): 55.1%
- Relative tumor reproduction rate T/C (%) [8]: 41.5%

Compound: COc1ccc2nccc(Oc3ccc(NC(=O)Nc4ccc(F)c(C(F)(F)F)c4)cc3)c2c1 [Compound 17]
- Inhibition rate % on raf kinase (Raf-1(truncated)): 58.2%
- Inhibition rate, growth of human lung cancer cell A549 [1, 9]: 88.52%
- Inhibition rate, 95D cell strain migration [2]: 90.52%
- Inhibition rate, adhesion ability of human lung cancer cell A549 (lung cancer cell A549): 97.50%
- Inhibition rate, growth of HUVEC cell [3]: 13.52%
- Inhibition rate, lumen formation ability of HUVEC [4]: 67.50%
- Relative tumor reproduction rate T/C (%) on human lung cancer A549 transplantation tumor in nude mice [5]: 7.3%
- Relative tumor reproduction rate T/C (%) on human liver cancer cell bel-7402 transplantation tumor model in nude mice [6]: 12.5%
- Relative tumor reproduction rate T/C (%) on human renal carcinoma GCR-1 cell transplanted tumor model in nude mice [7]: 11.1%
- Tumor growth inhibition rate (%) (mice S180 sarcoma): 44.2%
- Relative tumor reproduction rate T/C (%) [8]: 54.7%

Compound: CNC(=O)c1ncc(Oc2ccc(NC(=O)Nc3ccc(Br)c(C(F)(F)F)c3)cc2)c(OC)n1 [Compound 9, N-(4-bromo-3-(trifluoromethyl)phenyl)-N′-(4-(2-(N-methylaminoformoxyl)-5-(4-methoxypyrimidinyl)oxy)phenyl)urea]
- Inhibition rate % on raf kinase (Raf-1(truncated)): 99.2%
- Inhibition rate, growth of human lung cancer cell A549 [1, 9]: 61.54%
- Inhibition rate, 95D cell strain migration [2]: 91.42%
- Inhibition rate, adhesion ability of human lung cancer cell A549 (lung cancer cell A549): 85.32%
- Inhibition rate, growth of HUVEC cell [3]: 11.54%
- Inhibition rate, lumen formation ability of HUVEC [4]: 91.45%
- Relative tumor reproduction rate T/C (%) on human lung cancer A549 transplantation tumor in nude mice [5]: 38.7%
- Relative tumor reproduction rate T/C (%) on human liver cancer cell bel-7402 transplantation tumor model in nude mice [6]: 36.8%
- Relative tumor reproduction rate T/C (%) on human renal carcinoma GCR-1 cell transplanted tumor model in nude mice [7]: 28.3%
- Tumor growth inhibition rate (%) (mice S180 sarcoma): 55.9%
- Relative tumor reproduction rate T/C (%) [8]: 35.2%
